According to patent US20240294548A1, “TRICYCLIC SULTAMS AND SULFAMIDES AS ANTITUMOR AGENTS” (PELOTON THERAPEUTICS INC., priority 2021, published 2024):

Experiments:
[1] = target: T1, DCAF15 (DDA1-DDB1ΔB-DCAF15Δpro) (Homo sapiens, UniProt Q66K64, DEL276-383); test: DCAF15 displacement assay (displacement FRET, probe PT7795); format: binding; conditions: displacement of PT7795 (300 nM), compound 0.01 to 100 μM, 18 hours incubation; read-out: DCAF15 displacement IC50
T1 construct: made in house; host or cells: Sf9 (Bac-to-Bac baculovirus)
From the text: (§1) Proteins used for the assays were as follows: Human DDA1 (UniProt:Q9BW61), DDB1 (UniPro: Q16531), and DCAF15 (UniProt: Q66K64) coding sequences were cloned into pFastBac1 vectors and were co-expressed in Sf9 cells using Bac-to-Bac baculovirus expression system (Thermo Fisher Scientific). The expression construct for DCAF15 includes a N-terminal His6-tag to facilitate the purification.
DCAF15 Displacement Assay (Displacement FRET KD)
Synthesis of the probe PT7795 is described in the article.
Binding of PT7795 to DDA1-DDB1AB-DCAF15Δpro was measured by the FRET signal between europium-labeled anti-His antibody (AD0205, Perkin Elmer) that is associated with His-tagged DCAF15 and ALX647 moiety in PT7795. […] After equilibrating for 2-3 hours at 4° C., the plate was removed from the incubator, briefly spun, then read on a Spark 10 (Tecan) at the excitation/emission wavelength of 340 nm/615 nm and 340 nm/665 nm.
Binding of compounds in this disclosure to DCAF15 was measured in a competition by the displacement of PT7795. The concentration of PT7795 was kept at 300 nM while the concentration of a compound was varied from 0.01 to 100 μM. The incubation time was increased to 18 hours for enhanced signal to noise level.
F=Fmin+(Fmax−Fmin)/(1+10^(logIC50−log[Compound])^n) (Equation 2)
The Kds can then be calculated from IC50s using Equation 3 (Cheng-Prusoff equation).

[2] = test system: HCT116 human colorectal carcinoma cells; test: CellTiter-Glo assay (cell viability); format: cell-based; conditions: HCT-116, 72 h, HCT116 cells, 3 days, CellTiter-Glo luminescence, read-out: CTG IC50
Method: HCT116 human colorectal carcinoma cells were used in these experiments. HCT116 cells were obtained from ATCC. CellTiter-Glo® Luminescent Cell Viability Assay Reagent was obtained from Promega.
About 3,000 cells were seeded into 96-well plate with 100 μL of media (DMEM supplemented with 10% FBS, 100 units penicillin, and […] streptomycin per mL) the day before the experiment. For compound treatment, the master plate was prepared as follows: 100× compound stocks were prepared in a 96-well plate by 1 to 3 serial dilutions of 0.5 mM DMSO stocks. Each master plate contained serial dilution of 8 compounds, including the control compound E7820. […] of 100× compound stock was added to each well of the assay plate to give final concentrations of […]. Each concentration was tested in triplicate. After 3 days, cell viability was determined using CellTiter-Glo Luminescent Cell Viability Assay Reagent following the manufacturer's recommended protocol. Briefly, […] of CellTiter-Glo reagent was added to each well of the assay plate and the contents were mixed for 3 minutes at 600 rpm on a shaker (Thermomixer R). The plate was immediately placed in a plate reader (Synergy 2) and the luminescence signal (0.5 second per well integration time) was determined. IC50 values were calculated using Dotmatics software.

[3] = target: T2, DCAF15 RBM39 ternary complex (Homo sapiens, UniProt Q14498+Q66K64, DEL276-383); test: DCAF15 RBM39 complex formation assay (FRET); format: biochemical; conditions: FRET ratio, 20 nM DDB1DB/DCAF15, 50 nM RBM39 R1R2, overnight at 4° C.; read-out: DCAF15 RBM39 ternary complex EC50
T2 construct: Amino acids 150 to 331 of RBM39 were cloned into pGEX4T3; GST (from the pGEX4T3 vector, own knowledge) followed by a TEV cleavage site (N); made in house; host or cells: Sf9 baculovirus (DDB1ΔB/DCAF15); E. coli (RBM39 R1R2)
T2 sequence (Q66K64 with tags, fused parts or gaps DEL276-383): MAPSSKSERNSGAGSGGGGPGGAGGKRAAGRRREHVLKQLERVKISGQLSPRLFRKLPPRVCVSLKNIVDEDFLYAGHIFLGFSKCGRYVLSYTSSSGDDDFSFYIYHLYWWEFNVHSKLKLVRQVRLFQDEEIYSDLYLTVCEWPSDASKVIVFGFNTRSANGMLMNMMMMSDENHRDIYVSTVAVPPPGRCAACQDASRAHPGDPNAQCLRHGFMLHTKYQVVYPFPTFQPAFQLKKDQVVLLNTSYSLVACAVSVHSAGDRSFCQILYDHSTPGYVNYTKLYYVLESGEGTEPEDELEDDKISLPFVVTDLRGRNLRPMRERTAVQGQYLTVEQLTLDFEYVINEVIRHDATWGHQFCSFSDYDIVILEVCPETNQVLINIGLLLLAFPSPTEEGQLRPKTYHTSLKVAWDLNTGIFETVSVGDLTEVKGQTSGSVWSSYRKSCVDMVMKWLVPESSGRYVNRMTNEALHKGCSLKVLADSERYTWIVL
T2 sequence (Q14498 150-331, stated change not applied): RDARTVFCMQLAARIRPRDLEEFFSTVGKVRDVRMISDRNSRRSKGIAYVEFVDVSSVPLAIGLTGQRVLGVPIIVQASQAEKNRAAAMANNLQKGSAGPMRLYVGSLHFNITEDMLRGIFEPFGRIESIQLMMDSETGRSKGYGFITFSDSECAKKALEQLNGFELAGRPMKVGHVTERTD
From the text: as §1
DCAF15 RBM39 Complex Formation Assay
LANCE Eu-W1024 Anti-6×His and SureLight Allophycocyanin-anti-FLAG antibodies were purchased from Perkin Elmer. Human DDB1DB and His-tagged DCAF15 were co-expressed in baculovirus/sf9 system. […] The His-tagged DCAF15 contains six histidine residues directly preceding the DCAF15 sequence without any linker. An RBM39 fragment containing RRM1 and RRM2 was expressed in E. coli.
A compound of the present disclosure in DMSO (2 μL) was transferred to a 384-well assay plate. Compound was added in 14 points, 3-fold serial dilution (1 μM to 0.6 pico molar) in DMSO. […] FRET assay buffer (25 mM HEPES, pH 7.5, 100 mM NaCl, […], 0.5 mM TCEP, 0.005% Tween-20, 0.2 nM Eu-W1024 Anti-6×His, 50 nM SureLight Allophycocyanin-anti-FLAG, 20 nM DDB1DB/DCAF15, 50 nM RBM39 R1R2) was added and the resulting solution was incubated overnight at 4° C. […] Low signal controls containing no compound and high signal controls containing 10 mM indisulam were measured for each plate.
EC50 values were calculated using Dotmatics template equation for 4-parameter fit.
Results are expressed as % formation using the following equation: […]

Row | IC50 [1] | IC50 [2] | EC50 [3] | SMILES
1 | 12300 nM | 234 nM | 0.7 nM | COCCC1Cc2cc(Cl)c3c(Cl)c[nH]c3c2NS1(=O)=O (racemic) [Compound 22, 6,7-dichloro-3-(2-methoxyethyl)-1,3,4,9-tetrahydro-[1,2]thiazino[4,3-g]indole 2,2-dioxide]
2 | 50500 nM | 555 nM | 1.9 nM | COCC[C@H]1Cc2cc(Cl)c3c(Cl)c[nH]c3c2NS1(=O)=O (single isomer, unassigned) [Compound 29]
3 | 2580 nM | 184 nM | 1.3 nM | COCC[C@@H]1Cc2cc(Cl)c3c(Cl)c[nH]c3c2NS1(=O)=O (single isomer, unassigned) [Compound 30]
4 | 17400 nM | 1310 nM | 8.8 nM | O=S1(=O)Nc2c(cc(Cl)c3c(Cl)c[nH]c23)CN1c1ccccc1 [Compound 7, 6,7-dichloro-3-phenyl-1,3,4,9-tetrahydro-[1,2,6] thiadiazino[4,3-g]indole 2,2-dioxide]
5 | 3340 nM | 3160 nM | 6.2 nM | COCCN1Cc2cc(Cl)c3c(C#N)c[nH]c3c2NS1(=O)=O [Compound 8, 6-chloro-3-(2-methoxyethyl)-1,3,4,9-tetrahydro-[1,2,6] thiadiazino[4,3-g]indole7-carbonitrile 2,2-dioxide]
6 | ≥ 100000 nM | 5000 nM | 74.7 nM | CCCC1=Cc2ccc3c(Cl)c[nH]c3c2NS1(=O)=O [Compound 9, 7-chloro-3-propyl-1,9-dihydro-[1,2]thiazino[4,3-g]indole 2,2-dioxide]
7 | 14400 nM | 726 nM | 7.7 nM | CN1Cc2cc(Cl)c3c(Cl)c[nH]c3c2NS1(=O)=O [Compound 15, 6,7-dichloro-3-methyl-1,3,4,9-tetrahydro-[1,2,6]thiadiazino [4,3-g]indole 2,2-dioxide]
8 | 1210 nM | 259 nM | 1 nM | O=S1(=O)Nc2c(cc(Cl)c3c(Cl)c[nH]c23)CC1Cc1ccccc1 (stereo not drawn) [Compound 16, 3-benzyl-6,7-dichloro-1,3,4,9-tetrahydro-[1,2] thiazino[4,3-g]indole 2,2-dioxide]
9 | 531 nM | 237 nM | 1.6 nM | O=S1(=O)Nc2c(cc(Cl)c3c(Cl)c[nH]c23)CN1Cc1ccccn1 [Compound 19, 6,7-dichloro-3-(pyridin-2-ylmethyl)-1,3,4,9-tetrahydro-[1,2,6]thiadiazino [4,3-g]indole 2,2-dioxide]

Further lines, the molecule ahead of its results:

Row | SMILES | IC50 [1] | IC50 [2] | EC50 [3]
10 | COCCN1Cc2cc(Cl)c3c(Cl)c[nH]c3c2NS1(=O)=O [Compound 1, 6,7-dichloro-3-(2-methoxyethyl)-1,3,4,9-tetrahydro-[1,2,6] thiadiazino[4,3-g]indole 2,2-dioxide] | 3160 nM | 475 nM | 5.5 nM
11 | COCCN1Cc2cc(Cl)c3cc[nH]c3c2NS1(=O)=O [Compound 2, 6-chloro-3-(2-methoxyethyl)-1,3,4,9-tetrahydro-[1,2,6] thiadiazino[4,3-g]indole 2,2-dioxide] | 51800 nM | 2230 nM | 65.8 nM
12 | O=S1(=O)NCc2cc(Cl)c3c(Cl)c[nH]c3c2N1 [Compound 3, 6,7-dichloro-1,3,4,9-tetrahydro-[1,2,6]thiadiazino[4,3-g]indole 2,2-dioxide] | 27800 nM | 1430 nM | 8.1 nM
13 | O=S1(=O)Nc2c(ccc3c(Cl)c[nH]c23)CN1C1CCCCC1 [Compound 4, 7-chloro-3-cyclohexyl-1,3,4,9-tetrahydro-[1,2,6] thiadiazino[4,3-g]indole 2,2-dioxide] | 58100 nM | 943 nM | 16.1 nM
14 | O=S1(=O)CCc2cc(Cl)c3c(Cl)c[nH]c3c2N1 [Compound 5, 6,7-dichloro-1,3,4,9-tetrahydro-[1,2]thiazino[4,3-g]indole 2,2-dioxide] | 20000 nM | 789 nM | 11 nM
15 | O=S1(=O)Nc2c(cc(Cl)c3c(Cl)c[nH]c23)CN1Cc1ccccc1 [Compound 6, 3-benzyl-6,7-dichloro-1,3,4,9-tetrahydro-[1,2,6]thiadiazino[4,3-g]indole 2,2-dioxide] | 5260 nM | 608 nM | 3.1 nM
16 | CCCC1Cc2ccc3c(Cl)c[nH]c3c2NS1(=O)=O (stereo not drawn) [Compound 10, 7-chloro-3-propyl-1,3,4,9-tetrahydro-[1,2]thiazino[4,3-g]indole 2,2-dioxide] | ≥ 100000 nM | 5000 nM | 16.4 nM
17 | O=S1(=O)Nc2c(cc(Cl)c3c(Cl)c[nH]c23)CN1Cc1cccc(Cl)c1 [Compound 11, 6,7-dichloro-3-(3-chlorobenzyl)-1,3,4,9-tetrahydro-[1,2,6] thiadiazino[4,3-g]indole 2,2-dioxide] | 9720 nM | 1400 nM | 2.8 nM
18 | O=S1(=O)Nc2c(cc(Cl)c3c(Cl)c[nH]c23)CN1Cc1ccc(Cl)nc1 [Compound 12, 6,7-dichloro-3-((6-chloropyridin-3-yl)methyl)-1,3,4,9-tetrahydro-[1,2,6]thiadiazino[4,3-g]indole 2,2-dioxide] | 1110 nM | 125 nM | 0.7 nM
19 | O=S1(=O)Nc2c(cc(Cl)c3c(Cl)c[nH]c23)CN1Cc1ccc(Cl)cc1 [Compound 13, 6,7-dichloro-3-(4-chlorobenzyl)-1,3,4,9-tetrahydro-[1,2,6] thiadiazino[4,3-g]indole 2,2-dioxide] | 36100 nM | 810 nM | 6.2 nM
20 | O=S1(=O)Nc2c(cc(Cl)c3c(Cl)c[nH]c23)CN1Cc1ccccc1Cl [Compound 14, 6,7-dichloro-3-(2-chlorobenzyl)-1,3,4,9-tetrahydro-[1,2,6] thiadiazino[4,3-g] indole 2,2-dioxide] | 2320 nM | 218 nM | 3.4 nM
21 | O=c1ccc(CN2Cc3cc(Cl)c4c(Cl)c[nH]c4c3NS2(=O)=O)c[nH]1 [Compound 17, 5-((6,7-dichloro-2,2-dioxido-4,9-dihydro-[1,2,6]thiadiazino[4,3-g]indol-3(1H)-yl)methyl)pyridin-2(1H)-one] | 797 nM | 916 nM | 1.8 nM
22 | O=S1(=O)Nc2c(cc(Cl)c3c(Cl)c[nH]c23)CN1CCCCF [Compound 18, 6,7-dichloro-3-(4-fluorobutyl)-1,3,4,9-tetrahydro-[1,2,6]thiadiazino[4,3-g]indole 2,2-dioxide] | 2680 nM | 418 nM | 0.9 nM
